Experimental data taken from ChEMBL document CHEMBL1154392 (Bioorg Med Chem Lett, 2009).

Experiments:
[1] = test system: A-375; test: Cytotoxicity against human A375 cells expressing B-RafV600E mutant; format: functional, cell-based
[2] = molecular target: Serine/threonine-protein kinase B-raf (Homo sapiens, UniProt P15056); test: Inhibition of human recombinant B-Raf expressed in Sf9 cells assessed as inhibition of Mek1 phosphorylation
[3] = test system: Caco-2; test: Cytotoxicity against human Caco-2 cells expressing wild type B-Raf; format: functional, cell-based
[4] = test system: HT-29; test: Cytotoxicity against human HT-29 cells expressing B-RafV600E mutant; format: functional, cell-based
[5] = molecular target: Rho-associated protein kinase 1 (Homo sapiens, UniProt Q13464); test: Inhibition of ROCK1
Rho-associated protein kinase 1, sequence (Q13464 whole entry): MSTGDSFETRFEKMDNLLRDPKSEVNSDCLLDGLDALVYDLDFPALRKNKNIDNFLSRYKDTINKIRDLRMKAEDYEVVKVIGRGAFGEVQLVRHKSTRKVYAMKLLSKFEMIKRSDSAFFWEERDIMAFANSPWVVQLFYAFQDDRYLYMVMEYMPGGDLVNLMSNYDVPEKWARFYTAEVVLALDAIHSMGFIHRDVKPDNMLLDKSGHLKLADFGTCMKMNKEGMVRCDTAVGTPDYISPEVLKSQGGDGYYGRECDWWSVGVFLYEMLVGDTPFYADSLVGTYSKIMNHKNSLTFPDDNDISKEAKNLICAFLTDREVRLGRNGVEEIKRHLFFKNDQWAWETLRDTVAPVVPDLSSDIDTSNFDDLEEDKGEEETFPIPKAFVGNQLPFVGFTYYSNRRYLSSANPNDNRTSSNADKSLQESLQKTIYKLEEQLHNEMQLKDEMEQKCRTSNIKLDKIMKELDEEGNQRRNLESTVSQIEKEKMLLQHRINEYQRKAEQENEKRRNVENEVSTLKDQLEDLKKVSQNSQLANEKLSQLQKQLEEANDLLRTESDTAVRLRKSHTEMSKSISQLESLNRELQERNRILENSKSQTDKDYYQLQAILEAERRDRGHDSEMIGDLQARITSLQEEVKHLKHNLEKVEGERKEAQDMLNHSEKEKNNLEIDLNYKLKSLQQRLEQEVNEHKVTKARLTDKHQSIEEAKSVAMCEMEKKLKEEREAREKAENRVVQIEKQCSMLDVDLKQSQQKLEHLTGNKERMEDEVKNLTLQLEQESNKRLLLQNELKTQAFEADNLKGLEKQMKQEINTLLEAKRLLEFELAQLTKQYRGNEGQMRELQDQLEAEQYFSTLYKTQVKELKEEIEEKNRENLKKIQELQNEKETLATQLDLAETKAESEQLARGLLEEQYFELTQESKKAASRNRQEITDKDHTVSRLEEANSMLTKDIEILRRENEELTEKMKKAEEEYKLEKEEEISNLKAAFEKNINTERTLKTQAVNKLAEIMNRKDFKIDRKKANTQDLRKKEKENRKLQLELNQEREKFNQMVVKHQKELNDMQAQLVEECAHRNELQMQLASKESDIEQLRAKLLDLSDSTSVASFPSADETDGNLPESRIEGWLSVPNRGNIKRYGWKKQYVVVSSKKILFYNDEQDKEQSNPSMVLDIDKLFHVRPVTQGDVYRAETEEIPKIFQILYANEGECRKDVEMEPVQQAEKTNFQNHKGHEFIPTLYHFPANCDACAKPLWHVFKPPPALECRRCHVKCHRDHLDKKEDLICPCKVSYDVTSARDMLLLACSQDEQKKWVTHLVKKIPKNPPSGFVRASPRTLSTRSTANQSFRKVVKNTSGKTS

[6] = Inhibition of PKA
[7] = molecular target: Tyrosine-protein kinase Lyn (Homo sapiens, UniProt P07948); test: Inhibition of LYN
[8] = molecular target: Mitogen-activated protein kinase kinase kinase kinase 2 (Homo sapiens, UniProt Q12851); test: Inhibition of GCK
[9] = molecular target: MAP kinase-activated protein kinase 2 (Homo sapiens, UniProt P49137); test: Inhibition of MK2
[10] = molecular target: Tyrosine-protein kinase Fyn (Homo sapiens, UniProt P06241); test: Inhibition of FYN
[11] = molecular target: Mitogen-activated protein kinase 14 (Homo sapiens, UniProt Q16539); test: Inhibition of p38alpha
[12] = molecular target: Mitogen-activated protein kinase 1 (Homo sapiens, UniProt P28482); test: Inhibition of ERK2
[13] = molecular target: Aurora kinase B (Homo sapiens, UniProt Q96GD4); test: Inhibition of Aurora B
[14] = molecular target: Protein kinase C beta type (Homo sapiens, UniProt P05771); test: Inhibition of PKCbeta
Protein kinase C beta type, sequence (P05771 whole entry): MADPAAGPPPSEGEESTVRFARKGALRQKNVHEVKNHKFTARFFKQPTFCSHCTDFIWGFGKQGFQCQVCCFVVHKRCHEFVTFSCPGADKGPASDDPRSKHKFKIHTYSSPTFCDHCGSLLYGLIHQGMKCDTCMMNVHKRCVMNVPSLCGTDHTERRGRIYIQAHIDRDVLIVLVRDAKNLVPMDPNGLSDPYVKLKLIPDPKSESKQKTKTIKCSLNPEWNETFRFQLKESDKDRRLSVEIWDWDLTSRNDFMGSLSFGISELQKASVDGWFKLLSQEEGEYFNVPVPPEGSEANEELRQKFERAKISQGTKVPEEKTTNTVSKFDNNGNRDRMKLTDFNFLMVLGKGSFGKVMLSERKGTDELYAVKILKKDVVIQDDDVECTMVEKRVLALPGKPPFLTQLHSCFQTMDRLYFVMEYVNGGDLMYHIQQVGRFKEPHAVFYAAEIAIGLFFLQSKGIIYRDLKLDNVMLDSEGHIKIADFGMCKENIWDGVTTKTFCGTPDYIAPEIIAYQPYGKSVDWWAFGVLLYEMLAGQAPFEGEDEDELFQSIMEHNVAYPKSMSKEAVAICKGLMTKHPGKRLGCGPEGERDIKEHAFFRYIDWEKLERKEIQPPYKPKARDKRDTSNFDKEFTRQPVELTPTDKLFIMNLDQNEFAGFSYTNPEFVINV

[15] = molecular target: Serine/threonine-protein kinase Chk1 (Homo sapiens, UniProt O14757); test: Inhibition of CHK1
[16] = Inhibition of VEGFR2
[17] = molecular target: Casein kinase I isoform gamma-1 (Homo sapiens, UniProt Q9HCP0); test: Inhibition of CK1gamma1
Casein kinase I isoform gamma-1, sequence (Q9HCP0 whole entry, canonical isoform): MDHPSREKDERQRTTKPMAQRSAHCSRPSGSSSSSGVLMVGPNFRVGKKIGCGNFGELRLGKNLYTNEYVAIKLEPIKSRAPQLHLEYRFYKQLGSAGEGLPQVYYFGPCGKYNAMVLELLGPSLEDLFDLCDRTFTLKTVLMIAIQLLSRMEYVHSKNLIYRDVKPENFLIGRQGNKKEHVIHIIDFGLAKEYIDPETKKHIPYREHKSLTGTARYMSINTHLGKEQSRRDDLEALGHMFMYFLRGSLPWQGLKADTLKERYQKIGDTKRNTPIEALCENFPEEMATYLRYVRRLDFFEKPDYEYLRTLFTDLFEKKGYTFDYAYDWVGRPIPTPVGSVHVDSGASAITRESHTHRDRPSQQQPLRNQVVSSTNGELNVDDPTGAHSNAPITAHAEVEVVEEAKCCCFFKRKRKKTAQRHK

[18] = molecular target: Cyclin-dependent kinase 1 (Homo sapiens, UniProt P06493); test: Inhibition of CDK1
[19] = molecular target: Protein kinase C alpha type (Homo sapiens, UniProt P17252); test: Inhibition of PKCalpha
[20] = molecular target: Tyrosine-protein kinase HCK (Homo sapiens, UniProt P08631); test: Inhibition of HCK
[21] = molecular target: Cyclin-dependent kinase 2 (Homo sapiens, UniProt P24941); test: Inhibition of CDK2
[22] = molecular target: Platelet-derived growth factor receptor alpha (Homo sapiens, UniProt P16234); test: Inhibition of PDGFRalpha
Platelet-derived growth factor receptor alpha, sequence (P16234 whole entry): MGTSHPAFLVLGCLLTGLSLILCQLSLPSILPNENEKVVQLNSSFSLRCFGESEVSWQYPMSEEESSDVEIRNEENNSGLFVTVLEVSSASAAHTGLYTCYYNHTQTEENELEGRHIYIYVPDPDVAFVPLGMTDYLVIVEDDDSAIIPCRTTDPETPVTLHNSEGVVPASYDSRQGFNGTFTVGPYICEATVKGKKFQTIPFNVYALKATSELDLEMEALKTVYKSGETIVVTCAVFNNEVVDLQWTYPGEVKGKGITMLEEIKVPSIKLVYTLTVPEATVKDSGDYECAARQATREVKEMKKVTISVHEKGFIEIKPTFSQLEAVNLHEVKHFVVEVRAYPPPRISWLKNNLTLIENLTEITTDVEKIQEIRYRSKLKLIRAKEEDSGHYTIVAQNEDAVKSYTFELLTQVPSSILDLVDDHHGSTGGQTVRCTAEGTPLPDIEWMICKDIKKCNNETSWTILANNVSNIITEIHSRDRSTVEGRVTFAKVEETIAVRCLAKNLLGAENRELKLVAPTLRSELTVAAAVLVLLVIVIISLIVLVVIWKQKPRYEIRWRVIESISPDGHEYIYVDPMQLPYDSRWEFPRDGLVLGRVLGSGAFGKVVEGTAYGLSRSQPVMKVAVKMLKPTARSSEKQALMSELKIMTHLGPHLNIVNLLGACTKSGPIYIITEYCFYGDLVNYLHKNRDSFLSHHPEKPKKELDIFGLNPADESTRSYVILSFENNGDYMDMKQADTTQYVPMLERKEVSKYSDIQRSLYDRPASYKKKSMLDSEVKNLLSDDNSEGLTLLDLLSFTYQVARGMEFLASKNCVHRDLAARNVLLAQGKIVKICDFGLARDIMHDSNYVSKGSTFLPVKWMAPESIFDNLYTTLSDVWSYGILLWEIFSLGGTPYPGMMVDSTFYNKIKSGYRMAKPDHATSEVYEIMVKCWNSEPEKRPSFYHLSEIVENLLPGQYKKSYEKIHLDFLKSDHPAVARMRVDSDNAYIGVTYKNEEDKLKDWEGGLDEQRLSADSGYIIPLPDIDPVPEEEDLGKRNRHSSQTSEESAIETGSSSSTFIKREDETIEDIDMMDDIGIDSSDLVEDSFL

[23] = molecular target: Tyrosine-protein kinase ABL1 (Homo sapiens, UniProt P00519)
[24] = molecular target: Inhibitor of nuclear factor kappa-B kinase subunit alpha (Homo sapiens, UniProt O15111); test: Inhibition of IKKalpha
[25] = molecular target: Hepatocyte growth factor receptor (Homo sapiens, UniProt P08581); test: Inhibition of Met
[26] = molecular target: Inhibitor of nuclear factor kappa-B kinase subunit beta (Homo sapiens, UniProt O14920); test: Inhibition of IKK-beta
[27] = molecular target: Proto-oncogene tyrosine-protein kinase Src (Homo sapiens, UniProt P12931); test: Inhibition of SRC
Proto-oncogene tyrosine-protein kinase Src, sequence (P12931 2-536 limits assumed): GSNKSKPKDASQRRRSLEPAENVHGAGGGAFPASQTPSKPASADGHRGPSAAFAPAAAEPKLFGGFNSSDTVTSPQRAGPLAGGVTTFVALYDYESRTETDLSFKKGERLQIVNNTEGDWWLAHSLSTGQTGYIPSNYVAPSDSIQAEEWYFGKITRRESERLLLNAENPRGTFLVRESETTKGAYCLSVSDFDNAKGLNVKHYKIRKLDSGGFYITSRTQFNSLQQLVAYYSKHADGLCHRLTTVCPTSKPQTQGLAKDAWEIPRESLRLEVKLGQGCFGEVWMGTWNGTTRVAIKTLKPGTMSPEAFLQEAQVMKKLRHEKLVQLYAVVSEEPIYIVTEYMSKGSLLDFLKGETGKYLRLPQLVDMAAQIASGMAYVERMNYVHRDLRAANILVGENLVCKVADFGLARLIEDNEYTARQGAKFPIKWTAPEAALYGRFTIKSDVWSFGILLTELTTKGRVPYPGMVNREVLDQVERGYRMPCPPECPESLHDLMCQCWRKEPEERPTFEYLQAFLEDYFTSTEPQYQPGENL

[28] = molecular target: Ribosomal protein S6 kinase alpha-1 (Homo sapiens, UniProt Q15418); test: Inhibition of RSk1

Serine/threonine-protein kinase B-raf, sequence (P15056 whole entry): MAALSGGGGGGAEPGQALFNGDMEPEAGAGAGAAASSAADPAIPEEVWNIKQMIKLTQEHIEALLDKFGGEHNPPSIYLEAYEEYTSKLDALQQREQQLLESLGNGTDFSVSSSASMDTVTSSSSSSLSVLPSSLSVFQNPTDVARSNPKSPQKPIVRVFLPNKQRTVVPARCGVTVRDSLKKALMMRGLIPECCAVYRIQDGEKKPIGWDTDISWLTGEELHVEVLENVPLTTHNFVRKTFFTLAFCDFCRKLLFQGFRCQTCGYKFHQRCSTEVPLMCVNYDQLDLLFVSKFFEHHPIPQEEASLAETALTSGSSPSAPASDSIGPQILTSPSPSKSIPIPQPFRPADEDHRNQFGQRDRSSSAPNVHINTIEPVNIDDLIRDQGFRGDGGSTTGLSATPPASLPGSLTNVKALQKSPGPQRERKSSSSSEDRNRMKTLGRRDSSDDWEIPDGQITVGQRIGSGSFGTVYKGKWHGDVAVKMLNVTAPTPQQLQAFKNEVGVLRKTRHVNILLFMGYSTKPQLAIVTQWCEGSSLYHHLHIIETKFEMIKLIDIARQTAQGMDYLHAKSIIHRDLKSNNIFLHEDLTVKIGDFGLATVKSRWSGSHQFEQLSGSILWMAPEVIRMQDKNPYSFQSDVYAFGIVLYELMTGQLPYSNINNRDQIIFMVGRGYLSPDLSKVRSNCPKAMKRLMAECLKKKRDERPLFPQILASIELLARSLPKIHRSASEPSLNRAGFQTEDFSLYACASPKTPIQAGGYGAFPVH

CC(=O)N1C[C@@H]2C[C@H]1CN2c1ccc(-c2ccnc3c(-c4ccc(F)c(O)c4)c(-c4ccncc4)nn23)cc1
IC50 [1]: 210 nM

COc1cc(-c2c(-c3ccncc3)nn3c(-c4ccc(N5C[C@@H]6C[C@H]5CN6C)cc4C)ccnc23)ccc1F
IC50 [2]: 1 nM
IC50 [1]: 933 nM

COc1cc(-c2c(-c3ccncc3)nn3c(-c4ccc(N5C[C@@H]6C[C@H]5CN6)cc4)ccnc23)ccc1F
IC50 [1]: 1200 nM

CN1C2CCC1CN(c1ccc(-c3ccnc4c(-c5cccc(O)c5)c(-c5ccncc5)nn34)cc1)C2
IC50 [3]: 1300 nM
IC50 [2]: 0.9 nM
IC50 [1]: 300 nM
IC50 [4]: 270 nM

COc1cccc(-c2c(-c3ccncc3)nn3c(-c4ccc(N5C[C@@H]6C[C@H]5CN6C)cc4)ccnc23)c1
IC50 [1]: 760 nM

COc1cc(-c2c(-c3ccncc3)nn3c(-c4ccc(N5C[C@@H]6C[C@H]5CN6C)cc4)ccnc23)ccc1F
IC50 [1]: 6000 nM

CCN1C[C@@H]2C[C@H]1CN2c1ccc(-c2ccnc3c(-c4ccc(F)c(O)c4)c(-c4ccncc4)nn23)cc1
IC50 [2]: 0.51 nM
IC50 [1]: 200 nM

COc1cccc(-c2c(-c3ccncc3)nn3c(-c4ccc(N5C[C@@H]6C[C@H]5CN6)cc4)ccnc23)c1
IC50 [2]: 12 nM
IC50 [1]: 1100 nM

COc1cccc(-c2c(-c3ccncc3)nn3c(-c4ccc(N5C[C@@H]6C[C@H]5CN6)cc4F)ccnc23)c1
IC50 [2]: 0.44 nM
IC50 [1]: 504 nM

COc1cccc(-c2c(-c3ccncc3)nn3c(-c4ccc(N5CC6CCC(C5)N6C)cc4)ccnc23)c1
IC50 [2]: 17 nM
IC50 [1]: 1900 nM

CN1C2CCC1CN(c1ccc(-c3ccnc4c(-c5ccc(Cl)c(O)c5)c(-c5ccncc5)nn34)cc1)C2
IC50 [2]: < 0.32 nM
IC50 [1]: 170 nM

CN1C[C@@H]2C[C@H]1CN2c1ccc(-c2ccnc3c(-c4cccc(O)c4)c(-c4ccncc4)nn23)c(Cl)c1
IC50 [2]: < 0.32 nM
IC50 [1]: < 10 nM

CN1C[C@@H]2C[C@H]1CN2c1ccc(-c2ccnc3c(-c4ccc(F)c(O)c4)c(-c4ccncc4)nn23)cc1
IC50 [2]: < 0.32 nM
IC50 [1]: 76 nM

Cc1cc(N2C[C@@H]3C[C@H]2CN3C)ccc1-c1ccnc2c(-c3ccc(F)c(O)c3)c(-c3ccncc3)nn12
IC50 [2]: < 0.32 nM
IC50 [1]: 15 nM

Oc1cccc(-c2c(-c3ccncc3)nn3c(-c4ccc(N[C@H]5CN6CCC5CC6)cc4)ccnc23)c1
IC50 [2]: 1 nM
IC50 [1]: 385 nM

Cc1cc(N2C[C@@H]3C[C@H]2CN3C)ccc1-c1ccnc2c(-c3cccc(O)c3)c(-c3ccncc3)nn12
IC50 [2]: < 0.32 nM
IC50 [1]: 31 nM

Oc1cccc(-c2c(-c3ccncc3)nn3c(-c4ccc(N5C[C@@H]6C[C@H]5CN6)cc4)ccnc23)c1
IC50 [2]: 0.49 nM
IC50 [1]: 300 nM

Cc1cc(N2C[C@@H]3C[C@H]2CN3)ccc1-c1ccnc2c(-c3cccc(O)c3)c(-c3ccncc3)nn12
IC50 [1]: 65 nM

CN1C[C@@H]2C[C@H]1CN2c1ccc(-c2ccnc3c(-c4cccc(O)c4)c(-c4ccncc4)nn23)c(F)c1
IC50 [2]: < 0.32 nM
IC50 [1]: 12 nM

Oc1cccc(-c2c(-c3ccncc3)nn3c(-c4ccc(N[C@@H]5CN6CCC5CC6)cc4)ccnc23)c1
IC50 [2]: 1.5 nM
IC50 [1]: 370 nM

CN1C[C@@H]2C[C@H]1CN2c1ccc(-c2ccnc3c(-c4cccc(O)c4)c(-c4ccncc4)nn23)cc1
IC50 [5]: 17600 nM
IC50 [6]: 1790 nM
IC50 [7]: 1760 nM
IC50 [8]: 4100 nM
IC50 [9]: 17100 nM
IC50 [10]: 1940 nM
IC50 [11]: 69 nM
IC50 [2]: 0.38 nM
IC50 [12]: > 50000 nM
IC50 [13]: 25500 nM
IC50 [14]: 119 nM
IC50 [15]: 18600 nM
IC50 [16]: 222 nM
IC50 [17]: 9510 nM
IC50 [18]: 28400 nM
IC50 [19]: 2460 nM
IC50 [1]: 77 nM
IC50 [20]: 1240 nM
IC50 [21]: 26400 nM
IC50 [22]: 6560 nM
IC50 [23]: 563 nM
IC50 [24]: > 50000 nM
IC50 [25]: 3100 nM
IC50 [26]: > 50000 nM
IC50 [27]: 675 nM
IC50 [28]: 9710 nM

COc1cc(-c2c(-c3ccncc3)nn3c(-c4ccc(N5CC6CCC(C5)N6C)cc4)ccnc23)ccc1Cl
IC50 [2]: 9.7 nM
IC50 [1]: 630 nM

Oc1cccc(-c2c(-c3ccncc3)nn3c(-c4ccc(NCC56CCN(CC5)CC6)cc4)ccnc23)c1
IC50 [2]: 2 nM
IC50 [1]: 930 nM

Oc1cccc(-c2c(-c3ccncc3)nn3c(-c4ccc(N5C[C@@H]6C[C@H]5CN6)cc4F)ccnc23)c1
IC50 [2]: < 0.32 nM
IC50 [1]: 23 nM

Oc1cccc(-c2c(-c3ccncc3)nn3c(-c4ccc(N5C[C@@H]6C[C@H]5CN6)cc4Cl)ccnc23)c1
IC50 [2]: < 0.32 nM
IC50 [1]: 16 nM

Oc1cc(-c2c(-c3ccncc3)nn3c(-c4ccc(N5C[C@@H]6C[C@H]5CN6)cc4)ccnc23)ccc1F
IC50 [2]: < 0.32 nM
IC50 [1]: 150 nM

CCOC(=O)c1cnn2c(-c3cccc(NC(=O)c4cccc(C(F)(F)F)c4)c3)ccnc12
IC50 [2]: 1500 nM
